Data from ChEMBL document CHEMBL6182915, “Discovery of a Potent FLT3 Inhibitor (E)-4-(3-(3-Fluoro-4-(morpholinomethyl)styryl)-1H-indazol-6-yl)pyridin-2-amine for the Treatment of Acute Myeloid Leukemia with Multiple FLT3 Mutations” (J Med Chem, 2025).

How the values were obtained:
Test in all cases: cells
[1] = test system: MV4-11; details: Homo sapiens, MV4-11, 72 h
[2] = test system: MV4-11; details: Homo sapiens, MV4-11, 72 h; remark: listed apart in the source
Description: Antiproliferative activity against human MV4-11 cells harboring FLT3-ITD mutant assessed as inhibition of cell growth incubated for 3 days by MTT assay

[3] = test system: MV4-11; details: Homo sapiens, MV4-11, 72 h, read-out: INH

SMILES | IC50 [1] | IC50 [2] | inhibition at 10 µM [3]
Nc1cc(-c2ccc3c(/C=C/c4ccc(C(=O)N5CCNCC5)cc4)n[nH]c3c2)ccn1 | 1.8 µM | 0.0062 µM | –
Nc1cc(-c2ccc3c(/C=C/c4cccnc4)n[nH]c3c2)ccn1 | 2.3 µM | 0.0295 µM | –
O=C(Cc1ccc(-c2ccc(OCCN3CCOCC3)cc2)cn1)NCc1ccccc1 [TIRBANIBULIN] | – | – | > 70%
O=C(c1ccc(/C=C/c2n[nH]c3cc(-c4ccncc4)ccc23)cc1)N1CCNCC1 | 3.4 µM | 0.0129 µM | –
O=C(c1ccc(/C=C/c2n[nH]c3ccc(-c4ccccc4)cc23)cc1)N1CCNCC1 | > 10 µM | 0.0553 µM | –
Nc1cc(-c2ccc3c(/C=C/c4ccncc4)n[nH]c3c2)ccn1 | 6.9 µM | 0.0184 µM | –
Nc1ccc(-c2ccc3c(/C=C/c4ccc(C(=O)N5CCNCC5)cc4)n[nH]c3c2)cn1 | > 10 µM | 0.0271 µM | –
Nc1cc(-c2ccc3c(/C=C/c4ccc(CN5CCOCC5)cc4)n[nH]c3c2)ccn1 | 1.1 µM | 0.0114 µM | –
Nc1cc(-c2cnc3c(/C=C/c4ccc(CN5CCOCC5)c(F)c4)n[nH]c3c2)ccn1 | 0.9 µM | 0.0256 µM | –
Nc1nccc(-c2ccc3c(/C=C/c4ccc(CN5CCOCC5)c(F)c4)n[nH]c3c2)n1 | 0.6 µM | 0.0107 µM | –
CN1CCN(c2ccc(-c3n[nH]c4cc(-c5ccnc(N)c5)ccc34)cc2)CC1 | > 10 µM | 0.0549 µM | –
Nc1cc(-c2ccc3c(CCc4ccc(CN5CCOCC5)c(F)c4)n[nH]c3c2)ccn1 | > 10 µM | 0.219 µM | –
CCn1cc(-c2n[nH]c3cc(-c4ccnc(N)c4)ccc23)cn1 | > 10 µM | 0.163 µM | –
CN1CCN(c2ccc(/C=C/c3n[nH]c4cc(-c5ccnc(N)c5)ccc34)cc2)CC1 | 2.8 µM | 0.0064 µM | –
CCc1nc(C(N)=O)c(Nc2ccc(N3CCC(N4CCN(C)CC4)CC3)c(OC)c2)nc1NC1CCOCC1 [GILTERITINIB] | – | – | > 70%
CN1CCN(Cc2ccc(-c3n[nH]c4cc(-c5ccnc(N)c5)ccc34)cc2)CC1 | > 10 µM | 0.156 µM | –

SMILES | IC50 [1] | IC50 [2] | inhibition at 10 µM [3]
Nc1cc(-c2ccc3c(-c4ccc(S(=O)(=O)N5CCOCC5)cc4)n[nH]c3c2)ccn1 | > 10 µM | 0.197 µM | –
Nc1cc(-c2ccc3c(-c4ccc(N5CCOCC5)cc4)n[nH]c3c2)ccn1 | > 10 µM | 0.0445 µM | –
O=C(c1ccc(/C=C/c2n[nH]c3ccc(-c4ccncc4)cc23)cc1)N1CCNCC1 | > 10 µM | 0.0587 µM | –
O=C(c1ccc(/C=C/c2n[nH]c3ccc(-c4cccnc4)cc23)cc1)N1CCNCC1 | > 10 µM | 0.0151 µM | –
Nc1cc(-c2ccc3c(/C=C/c4ccc(C(=O)N5CCOCC5)cc4)n[nH]c3c2)ccn1 | 2.3 µM | 0.0203 µM | –
Nc1cc(-c2ccc3c(-c4ccc(CN5CCOCC5)cc4)n[nH]c3c2)ccn1 | > 10 µM | 0.0877 µM | –
CN1CCN(Cc2ccc(/C=C/c3n[nH]c4cc(-c5ccnc(N)c5)ccc34)cc2)CC1 | 1.6 µM | 0.0165 µM | –
Nc1cc(-c2ccc3c(/C=C/c4ccccc4)n[nH]c3c2)ccn1 | 6.1 µM | 0.0398 µM | –
Nc1cc(-c2ccc3c(-c4cnn(CCO)c4)n[nH]c3c2)ccn1 | > 10 µM | 0.222 µM | –
O=C(c1ccc(/C=C/c2n[nH]c3cc(-c4cccnc4)ccc23)cc1)N1CCNCC1 | > 10 µM | 0.0165 µM | –
O=C(c1ccc(/C=C/c2n[nH]c3cc(-c4ccccc4)ccc23)cc1)N1CCNCC1 | 6.9 µM | 0.0225 µM | –
COc1cc(/C=C/c2n[nH]c3cc(-c4ccnc(N)c4)ccc23)cc(OC)c1 | > 10 µM | 0.354 µM | –
O=C(c1ccc(/C=C/c2n[nH]c3cc(-c4ccnc5[nH]ccc45)ccc23)cc1)N1CCNCC1 | 5.7 µM | 0.0187 µM | –
Nc1cc(-c2ccc3c(/C=C/c4ccc(CN5CCOCC5)c(Cl)c4)n[nH]c3c2)ccn1 | 0.8 µM | 0.0104 µM | –
Nc1cc(-c2ccc3c(/C=C/c4ccc(N5CCOCC5)cc4)n[nH]c3c2)ccn1 | 3.4 µM | 0.009 µM | –
